According to ChEMBL document CHEMBL3039007, “Structure-based identification of OATP1B1/3 inhibitors” (Mol Pharmacol, 2013):
Residues, ends and D or L forms follow the SMILES beside them.

Legend:
[1] = target: T1, Solute carrier organic anion transporter family member 1B1 (Homo sapiens, UniProt Q9Y6L6); conditions: chinese hamster, cho, 10 µM
T1 sequence (Q9Y6L6 whole entry): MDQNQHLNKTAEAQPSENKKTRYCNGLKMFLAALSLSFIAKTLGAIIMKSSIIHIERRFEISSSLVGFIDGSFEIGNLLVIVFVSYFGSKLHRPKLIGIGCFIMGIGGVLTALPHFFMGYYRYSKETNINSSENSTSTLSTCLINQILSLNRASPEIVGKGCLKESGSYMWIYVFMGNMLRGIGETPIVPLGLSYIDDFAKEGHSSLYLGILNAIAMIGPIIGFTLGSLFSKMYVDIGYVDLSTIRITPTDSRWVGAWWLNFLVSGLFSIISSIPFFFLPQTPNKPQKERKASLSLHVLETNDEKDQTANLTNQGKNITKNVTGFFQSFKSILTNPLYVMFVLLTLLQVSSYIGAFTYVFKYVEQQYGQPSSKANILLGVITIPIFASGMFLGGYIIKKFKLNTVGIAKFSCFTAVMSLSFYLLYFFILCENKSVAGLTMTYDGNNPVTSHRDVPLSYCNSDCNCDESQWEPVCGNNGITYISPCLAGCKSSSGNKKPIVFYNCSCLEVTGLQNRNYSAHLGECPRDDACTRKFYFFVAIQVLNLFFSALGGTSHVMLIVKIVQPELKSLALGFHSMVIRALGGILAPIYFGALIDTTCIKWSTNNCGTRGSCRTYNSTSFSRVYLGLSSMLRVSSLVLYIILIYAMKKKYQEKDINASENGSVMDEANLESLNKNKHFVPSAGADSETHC

[2] = target: T2, Solute carrier organic anion transporter family member 1B3 (Homo sapiens, UniProt Q9NPD5); conditions: chinese hamster, cho, 10 µM
T2 sequence (Q9NPD5 whole entry): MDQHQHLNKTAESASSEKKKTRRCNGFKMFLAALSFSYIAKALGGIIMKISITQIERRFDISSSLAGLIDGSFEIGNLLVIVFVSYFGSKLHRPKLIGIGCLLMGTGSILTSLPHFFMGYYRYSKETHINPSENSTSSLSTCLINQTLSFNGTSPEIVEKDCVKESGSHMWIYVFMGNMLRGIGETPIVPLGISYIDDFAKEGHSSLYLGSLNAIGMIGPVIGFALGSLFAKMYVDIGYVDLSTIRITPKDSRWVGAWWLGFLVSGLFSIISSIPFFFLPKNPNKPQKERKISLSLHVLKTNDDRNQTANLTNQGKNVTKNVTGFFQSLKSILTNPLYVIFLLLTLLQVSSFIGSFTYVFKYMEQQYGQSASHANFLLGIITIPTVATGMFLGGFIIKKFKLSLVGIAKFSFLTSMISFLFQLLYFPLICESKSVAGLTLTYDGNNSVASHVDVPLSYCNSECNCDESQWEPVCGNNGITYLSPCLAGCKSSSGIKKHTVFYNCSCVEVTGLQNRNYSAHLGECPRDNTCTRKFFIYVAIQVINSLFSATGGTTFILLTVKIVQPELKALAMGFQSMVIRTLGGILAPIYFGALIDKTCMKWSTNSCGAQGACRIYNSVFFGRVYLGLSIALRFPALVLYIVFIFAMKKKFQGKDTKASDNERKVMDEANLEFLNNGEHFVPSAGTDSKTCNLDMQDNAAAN

| SMILES | residual activity [1] | residual activity [2] |
| --- | --- | --- |
| CC(=O)OCC(=O)[C@@]1(O)CC[C@H]2[C@@H]3CC[C@@H]4C[C@H](O)CC[C@]4(C)[C@H]3C(=O)C[C@@]21C | 81.64% | 80% |
| COc1ccc([C@H]2Oc3c(I)c(OC)cc(OC)c3C[C@@H]2O)cc1OC [8-IODOCATECHIN TETRAMETHYL ETHER] | 194.8% | 100.1% |
| O=C1CN(/N=C/c2ccc(-c3ccc([N+](=O)[O-])cc3)o2)C(=O)[N-]1.[Na+] [DANTROLENE SODIUM] | 111.7% | 114.3% |
| O=C(/C=C/c1ccccc1)c1ccc(O)cc1 [4'-HYDROXYCHALCONE] | 132.2% | 130.5% |
| C[C@@H]1CC[C@@]2(OC1)O[C@H]1C[C@H]3[C@@H]4CC=C5C[C@@H](O)CC[C@]5(C)[C@H]4CC[C@]3(C)[C@H]1[C@@H]2C [DISOGENIN] | 85.54% | 85.35% |
| CC[C@]12CCCN3CCc4c(n(c5ccccc45)[C@@](O)(C(=O)OC)C1)[C@@H]32 [VINCAMINE] | 72.87% | 88.88% |
| CC(=O)Nc1ccccc1 [ACETANILIDE] | 96.78% | 100.2% |
| CCOP(=S)(OCC)SCn1c(=O)oc2cc(Cl)ccc21 [PHOSALONE] | 116.2% | 124% |
| CC(=O)O.CSC(=N)NCCC[C@H](N)C(=O)O [S-METHYL-L-THIOCITRULLINE ACETATE] | 104.5% | 107% |
| CC(=O)O[C@H]1CC[C@@]2(C)C(=CC[C@@H]3[C@@H]2CC[C@]2(C)C4C(C[C@@H]32)OC2(CCC(C)CO2)[C@H]4C)C1 (stereo partly drawn) | 111% | 105.4% |
| CCCCOc1ccc(C(=O)CCN2CCCCC2)cc1.Cl [DYCLONINE HYDROCHLORIDE] | 170.9% | 83.62% |
| Cc1ccnc(NS(=O)(=O)c2ccc(N)cc2)n1 [SULFAMERAZINE] | 84.88% | 101.2% |
| C[C@H](CCC(=O)O)[C@H]1CC[C@H]2[C@@H]3[C@@H](O)C[C@@H]4C[C@H](O)CC[C@]4(C)[C@H]3CC[C@]12C [URSODIOL] | 70.93% | 149.7% |
| Cc1ccc(-c2nc3ccc(C)cn3c2CC(=O)N(C)C)cc1 [ZOLPIDEM] | 177.4% | 78.05% |
| Cc1ccc(C(C)C)cc2c(C)ccc1-2 [GUAIAZULEN] | 49.11% | 50.28% |
| COc1cc2c(cc1OC)[C@@H]1C(=O)c3ccc4c(c3O[C@@H]1CO2)CC(C(C)C)O4 (stereo partly drawn) [DIHYDROROTENONE] | 53.61% | 63.71% |
| NC(=O)N/N=C/c1ccc([N+](=O)[O-])o1 [NITROFURAZONE] | 93.46% | 98.78% |
| CCCCOC(=O)c1ccccc1C(=O)OCCCC [DIBUTYL PHTHALATE] | 119.5% | 124.6% |
| COC(=O)CC[C@@H](C)[C@H]1CC[C@H]2[C@@H]3CC[C@@H]4C[C@H](O)CC[C@]4(C)[C@H]3C[C@H](O)[C@]12C [METHYL DEOXYCHOLATE] | 62.17% | 71.46% |
| CCC1(C)CC(=O)NC1=O (stereo not drawn) [ETHOSUXIMIDE] | 137.5% | 102.9% |
| CCCCCCc1ccc(O)cc1O.Nc1c2ccccc2nc2ccccc12 [ACRISORCIN] | 70.31% | 120.2% |
| CC(=O)OCC(COC(C)=O)OC(C)=O [TRIACETIN] | 98.2% | 86.74% |

| SMILES | residual activity [1] | residual activity [2] |
| --- | --- | --- |
| CC(=O)Nc1cccc(O)c1 [METACETAMOL] | 66.39% | 79.17% |
| C[C@H]1C(=O)O[C@@H]2CCN3CC=C(COC(=O)[C@](C)(O)[C@]1(C)O)[C@H]23 [MONOCROTALINE] | 100.7% | 94.85% |
| O=C(O[C@@H]1Cc2c(O)cc(O)cc2O[C@@H]1c1cc(O)c(O)c(O)c1)c1cc(O)c(O)c(O)c1 [EPIGALOCATECHIN GALLATE] | 49.04% | 45.88% |
| COC(=O)C(O)c1ccccc1 (stereo not drawn) [MANDELIC ACID, METHYL ESTER] | 97.92% | 76.32% |
| O=C1c2ccccc2C(=O)C1c1ccccc1 [PHENINDIONE] | 89.42% | 128.9% |
| C[C@]12CC[C@@H](O)C[C@H]1CCc1ccccc12 [3alpha-HYDROXY-4,4-BISNOR-8,11,13-PODOCARPATRIENE] | 77.88% | 100.9% |
| CC(C)C[C@H](N)C(=O)N[C@@H](C)C(=O)O [LEU-ALA] (H-Leu-Ala-OH) | 93.04% | 96.54% |
| CN1CCC(=C2c3ccccc3Sc3ccccc32)CC1.O=C(O)/C=C\C(=O)O [PIMETHIXENE MALEATE] | 83.52% | 104.8% |
| CCC(C(N)=O)c1ccccc1 (stereo not drawn) [FENBUTYRAMIDE] | 101.6% | 100.4% |
| CC1=C2[C@H]3OC(=O)[C@@H](C)[C@@H]3CC[C@@]2(C)C=CC1=O [SANTONIN] | 108.9% | 89.43% |
| CCc1cccc(CC)c1N(COC)C(=O)CCl [ALACHLOR] | 103.5% | 105% |
| COc1cc(/C=C/C(=O)O)cc(OC)c1OC [SINAPIC ACID METHYL ETHER] | 80.23% | 88.51% |
| C[C@H](CCC(=O)O)[C@H]1CC[C@H]2[C@@H]3[C@H](O)C[C@@H]4C[C@H](O)CC[C@]4(C)[C@H]3CC[C@]12C [CHENODIOL] | 37.88% | 71.62% |
| COc1cc(O)c2c(c1)C(=O)c1cc(C)cc(O)c1C2=O [PHYSCION] | 111.9% | 112.8% |
| CN1[C@@H](CC(=O)c2ccccc2)CCC[C@H]1C[C@H](O)c1ccccc1.Cl [LOBELINE HYDROCHLORIDE] | 125.6% | 108.5% |
| COc1ccc(-c2cc(=O)c3cc(OC)ccc3o2)cc1 [6,4'-DIMETHOXYFLAVONE] | 34.44% | 110.4% |
| CC(N)C(=O)NC(Cc1ccccc1)C(=O)O (racemic) [ALANYL-dl-PHENYLALANINE] | 90.94% | 75.84% |
| O=c1cc(-c2cc(O)c(O)c(O)c2)oc2cc(O)cc(O)c12 [TRICETIN] | 79.5% | 127.6% |
| CN[C@@H]1[C@@H](O)[C@@H](O[C@@H]2[C@@H](O)[C@H](O[C@H]3O[C@H]([C@@H](C)O)[C@@H](O)[C@H](O)[C@H]3N)[C@@H](N)C[C@H]2N)OC[C@]1(C)O [GENETICIN] | 83.57% | 105.6% |
| COc1cc2c(cc1OC)C1C(=O)c3c(cc4c(c3O)C=CC(C)(C)O4)OC1CO2 (stereo not drawn) [beta-TOXICAROL] | 67.84% | 70.52% |
| O=C(O)/C=C/c1ccc(O)c(O)c1 [CAFFEIC ACID] | 69.6% | 94% |
| C=C(C)c1cc2cc(C(C)=O)c(O)cc2o1 [EUPARIN] | 94.93% | 98.85% |
